Measurements from the supplement of paper PMC10307832.

Columns and labels:
Experiment in all cases: relative viability (nuclei count vs DMSO), 5 days (fraction); higher = more cells survive
SGI-1776 + OSI-027 = compound: CN1CCC(CNc2ccc3ncc(-c4cccc(OC(F)(F)F)c4)n3n2)CC1 [SGI-1776] + COc1cccc2cc(-c3nc([C@H]4CC[C@H](C(=O)O)CC4)n4ncnc(N)c34)[nH]c12 [OSI-027] (partner 0.5 µM)
Outline: (§1)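 For relative viability, nuclei counts in treated wells were divided by those in vehicle wells. Lung cancer cell lines had been pin-tool dosed in 1536-well plates the day after seeding and cultured for 5 days, then fixed and stained in one step (final 0.05% Triton X-100, 1% formaldehyde, 1 ug/ml Hoechst) and imaged at 4×. Doses were one drug alone or a fixed anchor-drug dose plus five library-drug doses (not always all listed) in √10 steps, and values are duplicate-plate medians.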

Entinostat + Vorinostat = compound: Nc1ccccc1NC(=O)c1ccc(CNC(=O)OCc2cccnc2)cc1 [Entinostat] + O=C(CCCCCCC(=O)Nc1ccccc1)NO [Vorinostat] (partner 1 µM)
Outline: as §1

[1] = compound: C1COCCN1C2=NC(=NC3=C2OC4=C3C=CC=N4)C5=CC(=CC=C5)NC(=O)C6=CN=C(C=C6)N + CCNC(=O)c1noc(-c2cc(C(C)C)c(O)cc2O)c1-c1ccc(CN2CCOCC2)cc1 [Luminespib] (partner 0.01 µM)
Outline: as §1

[2] = compound: C1COCCN1C2=NC(=NC3=C2OC4=C3C=CC=N4)C5=CC(=CC=C5)NC(=O)C6=CN=C(C=C6)N + Cc1nc(Nc2ncc(C(=O)Nc3c(C)cccc3Cl)s2)cc(N2CCN(CCO)CC2)n1 [Dasatinib] (partner 0.075 µM)
Outline: as §1

Row | Cell Line | relative viability (SGI-1776 + OSI-027; first compound 0.08 µM) | relative viability (SGI-1776 + OSI-027; first compound 0.8 µM) | relative viability (SGI-1776 + OSI-027; first compound 2.53 µM) | relative viability (SGI-1776 + OSI-027; first compound 8 µM) | relative viability (Entinostat + Vorinostat; first compound 0.02 µM) | relative viability (Entinostat + Vorinostat; first compound 0.06325 µM) | relative viability (Entinostat + Vorinostat; first compound 0.2 µM) | relative viability (Entinostat + Vorinostat; first compound 0.6325 µM) | relative viability (Entinostat + Vorinostat; first compound 2 µM) | relative viability ([1]; first compound 0.02 µM) | relative viability ([1]; first compound 0.06325 µM) | relative viability ([1]; first compound 0.2 µM) | relative viability ([1]; first compound 0.6325 µM) | relative viability ([1]; first compound 2 µM) | relative viability ([2]; first compound 0.02 µM) | relative viability ([2]; first compound 0.06325 µM) | relative viability ([2]; first compound 0.2 µM) | relative viability ([2]; first compound 0.6325 µM) | relative viability ([2]; first compound 2 µM)
1 | NCI-H522 | 0.713 | 0.811 | 0.749 | 0.569 | 0.794 | 0.944 | 0.863 | 0.741 | 0.428 | 0.993 | 1.23 | 1.13 | 0.986 | 0.719 | 0.936 | 0.983 | 0.899 | 0.877 | 0.837
2 | NCI-H596 | 0.809 | 0.761 | 0.682 | 0.467 | 0.603 | 0.694 | 0.708 | 0.589 | 0.41 | 0.985 | 1.04 | 0.968 | 0.992 | 0.408 | 0.607 | 0.621 | 0.545 | 0.739 | 0.5
3 | NCI-H647 | 0.712 | 0.613 | 0.559 | 0.301 | 0.513 | 0.577 | 0.345 | 0.209 | 0.0916 | 0.31 | 0.193 | 0.189 | 0.125 | 0.127 | 0.196 | 0.2 | 0.174 | 0.164 | 0.0709
4 | NCI-H650 | 0.565 | 0.489 | 0.501 | 0.378 | 0.45 | 0.469 | 0.35 | 0.367 | 0.181 | 0.873 | 0.756 | 0.788 | 0.783 | 0.698 | 0.475 | 0.453 | 0.416 | 0.442 | 0.385
5 | NCI-H661 | 0.766 | 0.867 | 0.611 | 0.596 | 0.718 | 0.774 | 0.707 | 0.58 | 0.468 | 0.894 | 0.961 | 0.962 | 0.958 | 0.52 | 0.88 | 0.853 | 0.688 | 0.736 | 0.64
6 | NCI-H727 | 0.543 | 0.627 | 0.615 | 0.438 | 1.24 | 1.27 | 1.16 | 1.06 | 0.673 | 0.482 | 0.317 | 0.323 | 0.335 | 0.346 | 0.388 | 0.351 | 0.295 | 0.442 | 0.345
7 | NCI-H838 | 0.414 | 0.401 | 0.308 | 0.246 | 0.784 | 0.688 | 0.667 | 0.458 | 0.257 | 0.338 | 0.279 | 0.264 | 0.303 | 0.227 | 0.291 | 0.299 | 0.271 | 0.314 | 0.249
8 | NCI-H1355 | 0.46 | 0.486 | 0.402 | 0.305 | 0.604 | 0.638 | 0.62 | 0.504 | 0.381 | 0.708 | 0.741 | 0.7 | 0.58 | 0.693 | 0.755 | 0.79 | 0.71 | 0.659 | 0.5
9 | NCI-H1395 | 0.78 | 0.582 | 0.627 | 0.448 | 1.05 | 0.96 | 0.829 | 0.65 | 0.463 | 0.666 | 0.555 | 0.789 | 0.658 | 0.482 | 0.388 | 0.359 | 0.394 | 0.353 | 0.369
10 | NCI-H1437 | 0.913 | 0.976 | 0.819 | 0.806 | 0.612 | 0.466 | 0.383 | 0.261 | 0.254 | 0.859 | 1.21 | 1.04 | 1.08 | 0.537 | 0.33 | 0.431 | 0.272 | 0.385 | 0.264
11 | NCI-H1650 | 0.627 | 0.565 | 0.417 | 0.197 | 0.794 | 0.747 | 0.571 | 0.438 | 0.264 | 0.186 | 0.202 | 0.198 | 0.233 | 0.166 | 0.336 | 0.29 | 0.287 | 0.278 | 0.248
12 | NCI-H1651 | 0.81 | 0.683 | 0.677 | 0.529 | 0.599 | 0.645 | 0.449 | 0.496 | 0.314 | 0.949 | 0.992 | 0.999 | 0.856 | 0.557 | 0.482 | 0.461 | 0.39 | 0.4 | 0.22
13 | NCI-H1666 | 0.953 | 0.853 | 0.759 | 0.674 | 1.05 | 0.979 | 0.934 | 0.835 | 0.601 | 0.88 | 0.996 | 0.957 | 0.727 | 0.63 | 0.865 | 0.761 | 0.658 | 0.632 | 0.517
14 | NCI-H1734 | 0.686 | 0.645 | 0.615 | 0.403 | 0.846 | 0.861 | 0.84 | 0.604 | 0.489 | 0.169 | 0.197 | 0.204 | 0.182 | 0.156 | 0.502 | 0.544 | 0.436 | 0.397 | 0.262
15 | NCI-H1755 | 0.703 | 0.637 | 0.533 | 0.529 | 0.762 | 0.728 | 0.769 | 0.48 | 0.374 | 0.447 | 0.666 | 0.436 | 0.235 | 0.239 | 0.499 | 0.408 | 0.409 | 0.346 | 0.256
16 | NCI-H1793 | 0.258 | 0.253 | 0.31 | 0.223 | 0.78 | 0.854 | 0.801 | 0.439 | 0.29 | 0.16 | 0.192 | 0.168 | 0.165 | 0.158 | 0.378 | 0.453 | 0.417 | 0.334 | 0.383
